# Measurements from article PMC12518996 (Frontiers in Pharmacology, 2025).
# Read-outs that look alike come from different tables or passages of the source.
# Key:
# CYP2A6 [1] = target: T1, CYP2A6 (Mus musculus, UniProt P20852); conditions: read-out: IC50 value (µM), CYP2A6; CD1 mouse hepatocytes; probe coumarin; 0.1-100 μM
# T1 sequence (P20852 1-494): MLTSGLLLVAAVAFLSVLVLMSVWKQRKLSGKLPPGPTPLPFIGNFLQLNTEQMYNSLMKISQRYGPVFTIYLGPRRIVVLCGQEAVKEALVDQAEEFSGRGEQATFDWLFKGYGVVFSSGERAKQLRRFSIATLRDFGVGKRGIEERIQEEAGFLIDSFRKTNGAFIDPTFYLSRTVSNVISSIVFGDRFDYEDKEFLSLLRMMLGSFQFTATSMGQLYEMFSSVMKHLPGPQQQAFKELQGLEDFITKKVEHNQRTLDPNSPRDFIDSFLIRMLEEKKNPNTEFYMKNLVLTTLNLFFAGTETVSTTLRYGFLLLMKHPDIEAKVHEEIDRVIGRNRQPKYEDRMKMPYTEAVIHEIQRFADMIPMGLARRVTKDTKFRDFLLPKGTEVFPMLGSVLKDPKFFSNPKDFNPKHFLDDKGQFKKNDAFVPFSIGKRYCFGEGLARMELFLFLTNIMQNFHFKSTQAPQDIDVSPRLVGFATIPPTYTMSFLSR
# CYP2A6 [2] = target: T2, CYP2A6 (Homo sapiens, UniProt P11509); assay: Inhibition of CYP2A6 in human hepatocytes (coumarin probe)
# T2 sequence (P11509 1-494): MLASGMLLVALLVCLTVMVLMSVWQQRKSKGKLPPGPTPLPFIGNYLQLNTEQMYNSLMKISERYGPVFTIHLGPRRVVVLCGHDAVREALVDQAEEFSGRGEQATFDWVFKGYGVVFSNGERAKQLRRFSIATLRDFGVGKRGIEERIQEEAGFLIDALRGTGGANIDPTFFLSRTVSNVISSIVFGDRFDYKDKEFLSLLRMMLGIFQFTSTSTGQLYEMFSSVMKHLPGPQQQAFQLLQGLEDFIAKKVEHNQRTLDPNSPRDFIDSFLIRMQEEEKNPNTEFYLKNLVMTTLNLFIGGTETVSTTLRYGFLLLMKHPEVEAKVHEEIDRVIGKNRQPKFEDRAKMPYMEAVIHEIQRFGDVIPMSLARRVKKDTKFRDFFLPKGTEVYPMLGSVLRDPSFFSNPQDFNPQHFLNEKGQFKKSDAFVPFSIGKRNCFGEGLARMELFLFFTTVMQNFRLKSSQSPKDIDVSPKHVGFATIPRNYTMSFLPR
# human liver microsomes = assay: Metabolite formation in human liver microsomes with CYP-selective inhibitors; conditions: trazodone 4 μM, inhibitor at the table's Conc. (1-60 µM), versus control without inhibitor
# Protocol: The incubation was conducted at 37 °C for 20 min with gentle shaking. […] Reactions were terminated by adding an equal volume of acetonitrile to precipitate proteins, followed by centrifugation at 13,000 × g for 10 min.
# Metabolites were quantified under the same UHPLC-Orbitrap conditions described in § 2.2, ensuring consistent chromatography and MS performance across all inhibitor experiments. Metabolite levels in inhibitor-treated samples were compared to control samples (no inhibitor) to determine the extent of each CYP isoform involvement in metabolite production.
# CYP1A2 [3] = target: T3, CYP1A2 (Mus musculus, UniProt P00186); assay: Inhibition of CYP1A2 in CD1 mouse hepatocytes (phenacetin probe)
# T3 sequence (P00186 1-513): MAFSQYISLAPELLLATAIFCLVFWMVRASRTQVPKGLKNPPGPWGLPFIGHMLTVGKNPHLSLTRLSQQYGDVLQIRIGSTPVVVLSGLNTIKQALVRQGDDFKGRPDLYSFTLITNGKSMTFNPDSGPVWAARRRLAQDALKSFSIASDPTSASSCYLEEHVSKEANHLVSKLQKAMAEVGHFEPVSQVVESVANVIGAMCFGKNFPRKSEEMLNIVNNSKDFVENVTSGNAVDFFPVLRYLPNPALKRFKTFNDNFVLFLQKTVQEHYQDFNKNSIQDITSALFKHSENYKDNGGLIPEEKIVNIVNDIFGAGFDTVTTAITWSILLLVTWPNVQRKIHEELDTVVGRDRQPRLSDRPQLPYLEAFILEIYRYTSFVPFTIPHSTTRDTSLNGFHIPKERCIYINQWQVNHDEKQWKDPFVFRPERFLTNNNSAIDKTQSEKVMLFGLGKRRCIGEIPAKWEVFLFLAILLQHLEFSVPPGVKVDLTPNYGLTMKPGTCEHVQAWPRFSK
# in vitro [4] = conditions: male, Sprague-Dawley, rat, cryopreserved hepatocytes
# Protocol: (§1) Following termination, samples were centrifuged.
# (§2) CLint was calculated from the first-order elimination constant k, adjusted for the volume of incubation and hepatocyte count per reaction, and further normalized using a scaling factor for liver cells (expressed in million cells/g liver).
# in vitro [5] = conditions: male, CD-1, mouse, cryopreserved hepatocytes
# Protocol: as §1, §2
# in vitro [6] = conditions: both, human, cryopreserved hepatocytes
# Protocol: as §1, §2
# CYP1A2 [7] = target: T4, CYP1A2 (Homo sapiens, UniProt P05177); assay: biochemical
# T4 sequence (P05177 1-516): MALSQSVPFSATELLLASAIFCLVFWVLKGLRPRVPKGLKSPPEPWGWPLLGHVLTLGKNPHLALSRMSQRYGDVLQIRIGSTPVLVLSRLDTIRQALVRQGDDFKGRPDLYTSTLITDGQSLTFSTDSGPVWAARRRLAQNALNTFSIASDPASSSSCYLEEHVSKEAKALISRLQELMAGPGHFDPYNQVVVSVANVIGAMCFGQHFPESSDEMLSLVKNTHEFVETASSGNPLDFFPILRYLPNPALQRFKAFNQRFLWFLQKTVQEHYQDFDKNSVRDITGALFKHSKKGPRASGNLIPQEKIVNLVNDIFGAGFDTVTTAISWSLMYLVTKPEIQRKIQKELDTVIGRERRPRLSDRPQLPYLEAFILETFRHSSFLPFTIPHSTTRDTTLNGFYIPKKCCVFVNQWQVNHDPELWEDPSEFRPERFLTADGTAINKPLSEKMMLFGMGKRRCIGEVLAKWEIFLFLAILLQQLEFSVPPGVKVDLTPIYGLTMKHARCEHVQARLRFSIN
# CYP2E1 [8] = target: CYP2E1 (Homo sapiens, UniProt P05181); assay: biochemical
# Sequence of CYP2E1 (Homo sapiens, UniProt P05181) (P05181 whole entry): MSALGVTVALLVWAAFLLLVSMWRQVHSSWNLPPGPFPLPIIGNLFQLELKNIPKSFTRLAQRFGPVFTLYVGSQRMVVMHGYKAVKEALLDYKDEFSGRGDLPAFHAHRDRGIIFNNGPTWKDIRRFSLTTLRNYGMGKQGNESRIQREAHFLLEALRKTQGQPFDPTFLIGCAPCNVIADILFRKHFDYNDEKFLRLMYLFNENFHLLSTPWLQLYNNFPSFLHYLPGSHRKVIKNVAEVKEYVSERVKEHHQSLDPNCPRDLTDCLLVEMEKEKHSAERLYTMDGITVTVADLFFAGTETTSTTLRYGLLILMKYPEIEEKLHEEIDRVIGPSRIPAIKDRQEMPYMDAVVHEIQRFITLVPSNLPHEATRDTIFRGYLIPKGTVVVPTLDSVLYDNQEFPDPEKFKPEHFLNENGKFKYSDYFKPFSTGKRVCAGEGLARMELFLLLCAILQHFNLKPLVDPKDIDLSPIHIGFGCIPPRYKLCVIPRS
# CYP2A6 [9] = target: T1, CYP2A6; assay: biochemical
# CYP2E1 [10] = target: CYP2E1 (Mus musculus, UniProt Q05421); assay: biochemical
# Sequence of CYP2E1 (Mus musculus, UniProt Q05421) (Q05421 whole entry): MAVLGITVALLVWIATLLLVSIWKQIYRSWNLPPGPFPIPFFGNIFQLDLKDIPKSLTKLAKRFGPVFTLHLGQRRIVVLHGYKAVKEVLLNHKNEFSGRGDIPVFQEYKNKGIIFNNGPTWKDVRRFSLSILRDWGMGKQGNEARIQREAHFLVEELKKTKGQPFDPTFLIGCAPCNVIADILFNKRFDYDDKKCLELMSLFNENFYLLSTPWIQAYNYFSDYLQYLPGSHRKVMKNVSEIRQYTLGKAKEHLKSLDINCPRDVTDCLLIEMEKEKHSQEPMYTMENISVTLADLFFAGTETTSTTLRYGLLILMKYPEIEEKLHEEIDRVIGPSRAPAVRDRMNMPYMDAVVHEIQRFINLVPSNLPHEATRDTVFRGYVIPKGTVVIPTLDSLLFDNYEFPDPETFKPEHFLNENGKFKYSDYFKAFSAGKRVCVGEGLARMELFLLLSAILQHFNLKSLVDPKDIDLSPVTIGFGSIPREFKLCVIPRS
# [11] = tested on: rat cryopreserved hepatocytes; assay: Metabolic stability in rat cryopreserved hepatocytes
# Protocol: as §1, §2
# [12] = tested on: mouse cryopreserved hepatocytes; assay: Metabolic stability in mouse cryopreserved hepatocytes
# Protocol: as §1, §2
# [13] = tested on: human cryopreserved hepatocytes; assay: Metabolic stability in human cryopreserved hepatocytes
# Protocol: as §1, §2
# CYP3A4 = assay: Inhibition of CYP3A4 in CD1 mouse hepatocytes (midazolam probe); conditions: both, pooled cryopreserved CD1 mouse hepatocytes, probe midazolam
# [14] = trazodone 10 μM, 0.5 million cells/mL, first-order elimination constant
smiles,measurement,setting,value
N[C@@H]1C[C@H]1c1ccccc1 (racemic) [Tranylcypromine],IC50,CYP2A6 [1],1.49 µM
same,IC50,"CYP2A6 [2]; read-out: IC50 value (µM), CYP2A6, human hepatocytes, probe coumarin, 0.1-100 μM",1.72 µM
OC(Cn1cncn1)(Cn1cncn1)c1ccc(F)cc1F [Fluconazole],remaining percentage formation of M9 (as LC/MS peak areas),human liver microsomes,moderate inhibition
O=c1c2ccccc2nc2n1CCc1c-2[nH]c2ccccc12 [Rutaecarpine],IC50,CYP1A2 [3],11.8 µM
O=c1n(CCCN2CCN(c3cccc(Cl)c3)CC2)nc2ccccn12 [Trazodone],half-life at 10 µM,in vitro [4],9.22 min
same,hepatocyte CLint at 10 µM,in vitro [4],150 µL/min/1e6 cells
same,"remaining at 3 h, 10 µM",in vitro [4],0.521%
same,half-life at 10 µM,in vitro [5],45.2 min
same,hepatocyte CLint at 10 µM,in vitro [5],30.7 µL/min/1e6 cells
same,"remaining at 3 h, 10 µM",in vitro [5],7.09%
same,half-life at 10 µM,in vitro [6],124 min
same,hepatocyte CLint at 10 µM,in vitro [6],11.2 µL/min/1e6 cells
same,"remaining at 3 h, 10 µM",in vitro [6],35.8%
same,IC50,CYP1A2 [7],> 100 µM
same,IC50,CYP2E1 [8],6.18 µM
same,IC50,CYP2A6 [9],12.7 µM
same,IC50,CYP2E1 [10],14.6 µM
same,CLint (mL/min/g liver),"[11]; rat cryopreserved hepatocytes, scaling factor 108 million cells/g liver",16.2 mL/min/g liver
same,k,"[11]; rat cryopreserved hepatocytes, trazodone 10 μM, 0.5 million cells/mL, first-order elimination constant",0.075 min⁻¹
same,"CLint, rat hepatocytes versus human hepatocytes",[11]; ratio of clearance rates rat/human hepatocytes,over 12 fold
same,CLint (mL/min/g liver),[12]; scaling factor 135 million cells/g liver,4.14 mL/min/g liver
same,k,[12]; [14],0.015 min⁻¹
same,CLint (mL/min/g liver),[13]; scaling factor 118 million cells/g liver,1.31 mL/min/g liver
same,k,[13]; [14],0.006 min⁻¹
same,IC50,CYP2A6 [2],> 100 µM
same,IC50,CYP1A2 [3],> 100 µM
